Experimental data taken from the supplement of paper PMC10307832.

Experiments:
Assay in all cases: relative viability (nuclei count vs DMSO), 5 days (fraction); higher = more cells survive
[1] = compound: C1CNCCC1C2=CC(=NN2)C3=CC=NC=C3 + NC(=O)Nc1cc(-c2cccc(F)c2)sc1C(=O)N[C@H]1CCCNC1 [AZD7762] (partner 0.2 µM)
Outline: (§1)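 Lung cancer cell lines, seeded in 1536-well plates, were treated the following day by pin tool with a single drug or with five library-drug doses (not always all listed) in √10 steps on top of a fixed anchor-drug dose. Cells were fixed and nuclei stained in one step after 5 days, and nuclei were counted. Relative viability is the nuclei count for treated wells divided by that for vehicle wells, reported as medians of duplicate plates.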

[2] = compound: C1CNCCC1C2=CC(=NN2)C3=CC=NC=C3 + CCNC(=O)c1noc(-c2cc(C(C)C)c(O)cc2O)c1-c1ccc(CN2CCOCC2)cc1 [Luminespib] (partner 0.01 µM)
Outline: as §1

[3] = compound: C[C@@H](N)c1ccc(C(=O)Nc2ccnc3[nH]ccc23)cc1 + CS(=O)(=O)CCNCc1ccc(-c2ccc3ncnc(Nc4ccc(OCc5cccc(F)c5)c(Cl)c4)c3c2)o1 [Lapatinib] (partner 2 µM)
Outline: as §1

[4] = compound: C1CNCCC1C2=CC(=NN2)C3=CC=NC=C3 + C[C@@H](Oc1cc(-c2cnn(C3CCNCC3)c2)cnc1N)c1c(Cl)ccc(F)c1Cl [Crizotinib] (partner 1 µM)
Outline: as §1

Cell Line	relative viability ([1]; first compound 0.08 µM)	relative viability ([1]; first compound 0.8 µM)	relative viability ([1]; first compound 2.53 µM)	relative viability ([1]; first compound 8 µM)	relative viability ([2]; first compound 0.08 µM)	relative viability ([2]; first compound 0.8 µM)	relative viability ([2]; first compound 2.53 µM)	relative viability ([2]; first compound 8 µM)	relative viability ([3]; first compound 0.04 µM)	relative viability ([3]; first compound 0.1265 µM)	relative viability ([3]; first compound 0.4 µM)	relative viability ([3]; first compound 4 µM)	relative viability ([4]; first compound 0.08 µM)	relative viability ([4]; first compound 0.8 µM)	relative viability ([4]; first compound 2.53 µM)	relative viability ([4]; first compound 8 µM)	relative viability ([3]; first compound 1.265 µM)
CAL-12T	0.701	0.669	0.601	0.66	0.606	0.734	0.457	0.819	0.801	0.811	0.886	0.875	0.473	0.74	0.716	0.774	
NCI-H838	0.928	0.888	0.989	0.934	0.315	0.355	0.281	0.302	0.683	0.922	0.708	0.427	0.844	0.924	0.954	0.796	0.445
RERF-LC-KJ	0.905	1.04	1.11	1.01	1.14	1.3	1.45	1.42	0.906	0.837	0.931	0.869	0.872	0.894	0.912	0.759	0.902
HCC-44	0.976	1.04	1.04	1.04	0.923	1.58	1.32	1.06	1.09	1.02	1.04	0.916	0.889	0.908	0.842	0.839	1.18
A-427	0.752	0.802	0.92	0.774	0.789	1.2	0.908	0.92	0.968	1.07	1	0.885	0.874	0.93	0.944	0.846	
NCI-H322M	0.582	0.597	0.627	0.622	0.677	0.944	0.904	1.04	0.807	0.63	0.665	0.824	0.851	0.875	0.878	0.955	
ABC-1	0.851	0.519	0.915	1.02	0.517	0.69	1.02	0.663	1.16	1.02	1.2	1.36	0.988	1.12	1.04	1.18	
LK-2		0.29	0.532	0.522	0.176	0.19	0.214	0.226	1.06	0.693	0.975	0.733	0.232	0.252	0.221	0.265	0.814
NCI-H596	1.1	1.31	1.12	1.39	0.967	1.07	1.11	1.16	1.29	1.08	1.03	1.07	0.984	1.15	1.04	0.991	0.955
NCI-H2405	0.858	0.717	0.709	0.585	0.616	0.584	0.875	0.544		1.18	1.05	0.351	0.87	0.777	0.873	0.825	0.487
NCI-H460	0.69	0.673	0.652	0.658	0.0398	0.0336	0.0427	0.0305	0.974	1.1	0.984	1.03	0.369	1.02	1.02	0.996	1.12
NCI-H1755	0.473	0.448	0.419	0.561	0.301		0.417	0.64	0.874	1	1.05	0.685	0.967	0.836	0.887	0.776	0.705
NCI-H358	0.487	0.626	0.553	0.54	0.478	0.279	0.369	0.388	0.482	0.363	0.435	0.366	0.479	0.526	0.633	0.474	0.465
NCI-H1734	0.445	0.59	0.652	0.584	0.183	0.201	0.195	0.219	1.02	1.15	1.01	1.12	0.663	0.687	0.653	0.654	
EPLC-272H	0.18	0.261	0.26	0.212	0.281	0.22	0.406	0.206	1	0.914	1.1	0.668	0.922	0.937	0.91	0.867	
NCI-H2126	1.01	1.04	1.01	1.01	0.813	0.975	0.959	0.917	0.825	0.866	0.764	0.966	0.952	1.05	1.01	0.979	0.859
